Data reported in the RepoRT retention time repository.

Experiment: Waters SunFire C18, 150 × 2.1 mm, 3.5 µm, 25 °C, 0.25 mL/min, estimated dead time 1.3 min; A: water + 0.1% formic acid; B: methanol; gradient (min/%B) 0/5 30/100
Settings: stereoisomer not certain

LC retention time	SMILES
16.6 min	CC=C1CN2CCc3c([nH]c4ccccc34)C2CC1Cc1nccc2c1[nH]c1ccc(O)cc12 (stereo unspecified)
11.7 min	CC=C1CN2CCc3c([nH]c4ccc(O)cc34)C2CC1CCO (stereo unspecified)
16 min	CC=C1CN(C)CCC23C(=O)CC1C1COC(OC)C(=O)N(c4ccccc42)C13 (stereo unspecified)
15.6 min	CC=C1CN2C(C3C(=O)N4c5ccccc5C56CCN7CC8=CCOC3C(C8CC75)C46)CC34c5ccccc5N5C(=O)CC=C(C1CC23)C54 (stereo unspecified)
13 min	CCC12C=CCN3CCc4c(n(c5ccccc45)C(O)(C(=O)OC)C1)C32 (stereo unspecified)
27 min	CCC1=C(CC(=O)OC)C(OC)(c2nccc3c2[nH]c2ccccc23)OC1=O (stereo unspecified)
21.9 min	COC(=O)C1C2CC3c4[nH]c5cc(OC)ccc5c4CCN3CC2CC(OC(=O)c2cc(OC)c(OC)c(OC)c2)C1OC (stereo unspecified)
13.6 min	CN1CCC23C(=O)CC4C(=CCOC5CC(=O)N(c6ccccc62)C3C54)C1 (stereo unspecified)
16.7 min	CC=C1C[n+]2ccc3c([nH]c4ccccc43)c2CC1CCO (stereo unspecified)
14.5 min	CCC1CN2CCc3c([nH]c4ccccc34)C2CC1Cc1nccc2c1[nH]c1ccccc12 (stereo unspecified)
18.1 min	CCC12CCCN3C(=O)C=C(c4ccccc4NC(=O)CC1)C32O (stereo unspecified)
14.8 min	CC=C1C[N+]2(C)CCc3c4n(c5ccccc35)C(CO)C1CC42 (stereo unspecified)
17.5 min	CC=C1CN2CCc3c4n(c5ccccc35)C(C(=O)OC)C1CC42 (stereo unspecified)
15.3 min	CC=C1CN2CCC34c5ccccc5N5C(=O)C(C6CC78c9ccccc9N9C(=O)C=CC(C%10CC7N6CC%10=CC)C98)=CC(C1CC23)C54 (stereo unspecified)
14.7 min	CCC1CN2CCc3c([nH]c4ccccc34)C2CC1CC1c2[nH]c3ccccc3c2CCN1C (stereo unspecified)
16.3 min	CC=C1CN(C)C2Cc3c(n(C)c4ccccc34)C(=O)CC1C2C(=O)OC (stereo unspecified)
19.5 min	COC(=O)C1CC23CCCN4CCC5(c6cc(Cc7ccc8c(c7)C79CCN%10CCCC%11(CCC7(C(C(=O)OC)C%11)N8C)C%109)ccc6N(C)C15CC2)C43 (stereo unspecified)
16.1 min	CC=C(C=O)C1CC2c3c(c4ccccc4n3C(O)C1)CCN2C (stereo unspecified)
15.8 min	CC=C1C[n+]2ccc3c([nH]c4ccccc43)c2CC1C(C(=O)OC)C1OCC2C3CC4N(CCC45c4ccccc4N1C25)CC3CC (stereo unspecified)

LC retention time	SMILES
13.7 min	C=CC1CN2CCc3c([nH]c4ccccc34)C2CC1CCO (stereo unspecified)
14.8 min	CCC1(O)CC23CC4N(CCC45C(=C2C(=O)OC)Nc2ccccc25)C13 (stereo unspecified)
17.4 min	CC=C1CN2CCC34CC5C6CC7c8c(c9ccccc9n8C)CC(C6COC5(C)OC35C2CC1C(C(=O)OC)N5c1ccccc14)N7C (stereo unspecified)
25.8 min	CCC12CC34CC(C(=O)OC)=C5Nc6ccccc6C56CCN3C1C1CC3(CC)C5OC5CN5CCC7(c8ccccc8N(C64)C17O2)C53 (stereo unspecified)
15.1 min	COC(=O)C1CC23CCCN4C(=O)CC5(c6ccccc6N(C)C15CC2)C43 (stereo unspecified)
17 min	COC(=O)C1=COC(C)C2CN3CCc4c([nH]c5cc(OC)c(OC)cc45)C3CC12 (stereo unspecified)
10.3 min	C=CC1C(OC2OC(CO)C(O)C(O)C2O)OC2OC3CNC4CC1C2(C(=O)OC)C41Nc2ccccc2C31 (stereo unspecified)
16.1 min	COC(=O)C1C2CC3c4[nH]c5cc(OC)ccc5c4CCN3CC2CC(O)C1OC (stereo unspecified)
18.7 min	CCC12CCCN3CCc4c(n(c5ccccc45)C(c4ccc5c(c4)C46CCN7CCCC8(CCC4(C(C(=O)OC)C8)N5C)C76)C1)C32 (stereo unspecified)
14.1 min	COC(=O)C1C(O)CCC2CN3CCc4c([nH]c5cc(OC)ccc45)C3CC21 (stereo unspecified)
13.5 min	COC(=O)C1CC23C=CCN4CCC5(c6ccccc6NC15C2C)C43 (stereo unspecified)
16.6 min	CCC1CN2CCc3c([nH]c4ccccc34)C2CC1CC1NCCc2c1[nH]c1ccccc21 (stereo unspecified)
28.8 min	COC(=O)C1C(O)CCC2CN3CCc4c([nH]c5ccc(C)cc45)C3CC21 (stereo unspecified)
15 min	CC=C1CN2CCC34CN5c6c(cccc6C36C2CC1C(C(=O)OC)N6c1ccccc14)C12CCN3CCCC4(CCC51C4C)C32 (stereo unspecified)
25.1 min	COC(=O)C1CC23C=CC(=O)N2CCC2(C(=O)OC)c4ccccc4N(C(=O)OC)C12CC3 (stereo unspecified)
18 min	COC(=O)C1CC23CCCN4CCC5(c6cc(Cc7ccc8c(c7)C79CCN%10CCCC%11(CCC7(N8)C(C(=O)O)C%11)C%109)ccc6N(C)C15CC2)C43 (stereo unspecified)
16 min	CCC12CC(C(=O)OC)=C3Nc4ccccc4C34CCN(C(c3ccc5c(c3)C3CCN6CC7OC7C7(CC)CCC3(N5)C67)C3OC31)C42 (stereo unspecified)
23.2 min	CCC1=C(CC(=O)OC)C(O)(c2nccc3c2[nH]c2ccccc23)OC1=O (stereo unspecified)

SMILES	LC retention time
C=CC1CN2CCC3(C(=O)Nc4cc(O)ccc43)C2CC1CC1c2[nH]c3ccccc3c2CCN1C (stereo unspecified)	11.9 min
CCC1CC2CC3c4[nH]c5ccccc5c4CCN(C2)C13 (stereo unspecified)	15.3 min
CC=C1CN(C)CC2(C(=O)OC)Cc3c([nH]c4ccccc34)C(=O)CC12 (stereo unspecified)	14.3 min
CCC1C2CCN3CCC4(C(=C2C(=O)OC)Nc2ccccc24)C13 (stereo unspecified)	13.7 min
CC=C1CN2C3CC45c6ccccc6NC4(O3)C2CC1C5(COC(C)=O)C(=O)OC (stereo unspecified)	17.3 min
COc1ccc2[nH]c3c(c2c1)CCN1CC2CC3C1C(C(C)O)C2 (stereo unspecified)	14.9 min
O=C1CC=C2C3CC4N(CCC45c4ccccc4N1C25)CC3=CCO (stereo unspecified)	12.1 min
CCC1CC2CN3CCc4c([nH]c5cc(OC)c(OC)cc45)C(C(=O)OC)(C2)C13 (stereo unspecified)	16.3 min
CC=C1CN2CCC34C(=C(C(=O)OC)C1CC23)Nc1ccccc14 (stereo unspecified)	11.1 min
CCC1CC2CC3c4[nH]c5ccc(OC)cc5c4CCN(C2)C13 (stereo unspecified)	13.6 min
C=CC1CN2CCc3c([nH]c4ccccc34)C2CC1C(=COC)C(=O)OC (stereo unspecified)	16.7 min
CCC1CN(C)C2Cc3c([nH]c4ccccc34)C(c3c(OC)ccc4c5c([nH]c34)C3([C-]=[O+]OC)CC4CC(CC)C3N(CC5)C4O)CC1C2C(=O)OC (stereo unspecified)	15.1 min
CCC1CN2CCC3(C(=O)Nc4ccccc43)C2CC1C(=COC)C(=O)OC (stereo unspecified)	16.4 min
CC=C1CN2C(C3=CC4C5CC6N(CCC67c6ccccc6N(C3=O)C47)CC5=CC)CC34c5ccccc5N5C(=O)CC=C(C1CC23)C54 (stereo unspecified)	16 min
CC=C1CN2CCC34c5cc(O)ccc5N(C)C35OCC4(C(=O)OC)C1CC25 (stereo unspecified)	14.3 min
CCC1NC2CC3(C(=O)N(OC)c4cc(OC)ccc43)C3CC1C2CO3 (stereo unspecified)	16.3 min
CC=C1CN2CCC34c5ccccc5N5C(C(=O)OC)C1CC2C53OC(=O)c1c4ccc(O)c1O (stereo unspecified)	19.6 min
C=CC12CN(C)C3C4COC(CC41)C1(C(=O)Nc4ccccc41)C32 (stereo unspecified)	9.75 min
CCC1CN2CCC34c5ccccc5NC3C(CO)C1CC24 (stereo unspecified)	10.4 min
COC(=O)N1c2ccc(OC)cc2C23CCN4C(=O)C=CC45CCC12C3C5 (stereo unspecified)	28.1 min
CCC1=CC2CN3CCc4c([nH]c5ccccc45)C(C(=O)OC)(C2)C13 (stereo unspecified)	16.1 min
CC=C1CN2C3CC1C1(C(=O)OC)C2CC2(c4ccccc4NC32)C1O (stereo unspecified)	14.9 min
CN1CCC23C(=O)CC4C(=CCOC5CC(=O)N(c6c(O)cccc62)C3C54)C1 (stereo unspecified)	13.4 min
C=CC1CN2CCC1CC2c1[nH]c2ccccc2c1CCO (stereo unspecified)	16.7 min
